Calls of active or inactive are those of the source. The calls are words filed in the database; no cut-off is given here.
How the values were obtained:
[1] = target: T1, Tyrosine-protein phosphatase non-receptor type 1 (Homo sapiens) (UniProt P18031); assay: (§1) Inhibition of recombinant human PTP1B using pNPP as substrate measured after 30 mins
T1 sequence (whole entry): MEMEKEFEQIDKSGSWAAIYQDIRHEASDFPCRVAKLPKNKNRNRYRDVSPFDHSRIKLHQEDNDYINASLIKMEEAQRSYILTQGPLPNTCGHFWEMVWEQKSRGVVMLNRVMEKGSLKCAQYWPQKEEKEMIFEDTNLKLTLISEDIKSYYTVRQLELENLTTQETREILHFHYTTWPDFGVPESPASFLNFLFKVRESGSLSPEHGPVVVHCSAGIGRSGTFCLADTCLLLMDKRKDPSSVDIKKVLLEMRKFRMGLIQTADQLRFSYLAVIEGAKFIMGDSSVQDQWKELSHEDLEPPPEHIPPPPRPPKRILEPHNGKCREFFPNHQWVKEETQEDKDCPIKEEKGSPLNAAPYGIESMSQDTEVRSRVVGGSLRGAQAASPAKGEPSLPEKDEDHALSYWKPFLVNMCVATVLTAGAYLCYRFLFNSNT

[2] = target: T2, Tyrosine-protein phosphatase non-receptor type 1 (Homo sapiens, UniProt P18031); assay: as §1
T2 sequence (P18031 whole entry): T1 sequence (whole entry)

[3] = target: T1, Tyrosine-protein phosphatase non-receptor type 1 (Homo sapiens); assay: Potency index, ratio of […] IC50 to test compound IC50 for recombinant human PTP1B
[4] = target: T1, Tyrosine-protein phosphatase non-receptor type 1 (Homo sapiens); assay: Inhibition of PTP1B in human HepG2 cells assessed as suppression of PA-induced insulin resistance by measuring increase in IRS1 phosphorylation at 5 uM preincubated for 1 hr followed by PA-stimulation for 24 hrs and subsequent insulin measured by immunoblotting analysis; format: cell-based
[5] = target: T1, Tyrosine-protein phosphatase non-receptor type 1 (Homo sapiens); assay: Inhibition of PTP1B in human HepG2 cells assessed as suppression of PA-induced insulin resistance by measuring increase in AKT phosphorylation at 10 uM preincubated for 1 hr followed by PA-stimulation for 24 hrs and subsequent insulin measured by immunoblotting analysis; format: cell-based
Mus musculus [6] = assay: Protection against hyperglycemia-induced liver injury in db/db mouse assessed as reduction in serum AKP level at 10 to 20 mg/kg, po administered every other day for 10 weeks measured post last dose; format: functional, organism-based
Mus musculus [7] = assay: Protection against hyperglycemia-induced liver injury in db/db mouse assessed as reduction in serum ALT level at 10 to 20 mg/kg, po administered every other day for 10 weeks measured post last dose; format: functional, organism-based
Mus musculus [8] = assay: Protection against hyperglycemia-induced liver injury in db/db mouse assessed as reduction in serum total cholesterol level at 10 to 20 mg/kg, po administered every other day for 10 weeks measured post last dose; format: functional, organism-based
Mus musculus [9] = assay: Protection against hyperglycemia-induced liver injury in db/db mouse assessed as reduction in steatosis at 10 to 20 mg/kg, po administered every other day for 10 weeks measured post last dose by hematoxylin and eosin staining based light microscopic analysis; format: functional, organism-based
Mus musculus [10] = assay: Protection against hyperglycemia-induced liver injury in db/db mouse assessed as reduction in size and number of liver lipid droplets at 10 to 20 mg/kg, po administered every other day for 10 weeks measured post last dose by hematoxylin and eosin staining based light microscopic analysis; format: functional, organism-based
Mus musculus [11] = assay: Protection against hyperglycemia-induced liver injury in db/db mouse assessed as increase in IRS1 phosphorylation in liver at 10 to 20 mg/kg, po administered every other day for 10 weeks measured post last dose by immunoblotting analysis; format: functional, organism-based
[12] = AUC (0 to t) in Sprague-Dawley rat at 2 mg/kg, iv administered as single dose by UPLC/MS/MS analysis; format: ADME, organism-based; conditions: in vivo
[13] = AUC (0 to infinity) in Sprague-Dawley rat at 2 mg/kg, iv administered as single dose by UPLC/MS/MS analysis; format: ADME, organism-based; parameters: dose 2 mg/kg, route intravenous, time infinity; conditions: in vivo
[14] = Apparent half-life of the terminal disposition phase in Sprague-Dawley rat at 2 mg/kg, iv administered as single dose by UPLC/MS/MS analysis; format: ADME, organism-based; conditions: in vivo, read-out: t1/2 lambda z (converted)
[15] = Tmax in Sprague-Dawley rat at 2 mg/kg, iv administered as single dose by UPLC/MS/MS analysis; format: ADME, organism-based; conditions: in vivo
[16] = Cmax in Sprague-Dawley rat at 2 mg/kg, iv administered as single dose by UPLC/MS/MS analysis; format: ADME, organism-based; parameters: dose 2 mg/kg, route intravenous; conditions: in vivo
[17] = AUC (0 to t) in Sprague-Dawley rat at 20 mg/kg, ig administered as single dose by UPLC/MS/MS analysis; format: ADME, organism-based; conditions: in vivo, po
[18] = AUC (0 to infinity) in Sprague-Dawley rat at 20 mg/kg, ig administered as single dose by UPLC/MS/MS analysis; format: ADME, organism-based; parameters: dose 20 mg/kg, time infinity, route […]; conditions: in vivo, po
[19] = Apparent half-life of the terminal disposition phase in Sprague-Dawley rat at 20 mg/kg, ig administered as single dose by UPLC/MS/MS analysis; format: ADME, organism-based; conditions: in vivo, po, read-out: t1/2 lambda z (converted)
[20] = Tmax in Sprague-Dawley rat at 20 mg/kg, ig administered as single dose by UPLC/MS/MS analysis; format: ADME, organism-based; conditions: in vivo, po
[21] = Cmax in Sprague-Dawley rat at 20 mg/kg, ig administered as single dose by UPLC/MS/MS analysis; format: ADME, organism-based; parameters: dose 20 mg/kg, route […]; conditions: in vivo, po
[22] = Drug uptake in Sprague-Dawley rat at 20 mg/kg, ig administered as single dose measured after 4 hrs by UPLC/MS/MS analysis; format: ADME, organism-based; conditions: in vivo, po

For `C=CCc1cc(/C=C/C(=O)c2ccc(-n3cccn3)cc2)c(OC)cc1O`, which inhibition [1] is on record?
Its inhibition is “Dose-dependent effect”.

And the IC50 ([2]; read-out: IC50)?
The IC50 was 6.3 µM.

For `C=CCc1cc(/C=C/C(=O)c2ccc(OCCCCC(=O)O)cc2)c(OC)cc1O`, which inhibition [1] is on record?
Its inhibition is “Dose-dependent effect”.

And the IC50 ([2]; read-out: IC50)?
Its IC50 is 5.8 µM.

Which results are given for `C=CCc1cc(/C=C/C(=O)c2ccccc2N(C)C)c(OC)cc1O`?
inhibition [1]: Dose-dependent effect; IC50 ([2]; read-out: IC50): 16.3 µM

For `C=CCc1cc(/C=C/C(=O)c2cccc(NS(C)(=O)=O)c2)c(OC)cc1O`, which IC50 [2] is on record?
Its IC50 is “Not Active”.

Which inhibition [1] does the source give for `C=CCc1cc(/C=C/C(=O)c2ccc(OCC)cc2)c(OC)cc1O` here?
The inhibition was “Dose-dependent effect”.

What about the IC50 ([2]; read-out: IC50) of the same compound?
Its IC50 is 5.3 µM.

Which inhibition [1] does the source give for `C=CCc1cc(/C=C/C(=O)c2cc3c(cc2N(C)C)OCO3)c(OC)cc1O` here?
The inhibition was “Dose-dependent effect”.

What about the IC50 ([2]; read-out: IC50) of the same compound?
Its IC50 is 11.8 µM.

With `C=CCc1cc(/C=C/C(=O)c2ccc(OCCCCC(=O)OCC)cc2)c(OC)cc1O` as the compound, how does the inhibition [1] read?
The inhibition was “Dose-dependent effect”.

And the IC50 ([2]; read-out: IC50)?
The IC50 was 3.9 µM.

Which results are given for `C=CCc1cc(/C=C/C(=O)c2ccc(N(CC=C)CC=C)cc2)c(OC)cc1O`?
inhibition [1]: Dose-dependent effect; IC50 ([2]; read-out: IC50): 5.9 µM

With `C=CCc1cc(/C=C/C(=O)c2ccc(OC)c(CC=C(C)C)c2)c(OC)cc1O` as the compound, how does the inhibition [1] read?
Its inhibition is “Dose-dependent effect”.

And the IC50 ([2]; read-out: IC50)?
The IC50 was 8.2 µM.

Which inhibition [1] does the source give for `C=CCc1cc(/C=C/C(=O)c2ccc(OC)c(CC=C)c2)c(OC)cc1O` here?
The inhibition was “Dose-dependent effect”.

And the IC50 ([2]; read-out: IC50)?
The IC50 was 10.9 µM.

What does the source list for `C=CCc1cc(/C=C/C(=O)c2ccc(OCC(=O)O)cc2)c(OC)cc1O`?
inhibition [1]: Dose-dependent effect; IC50 ([2]; read-out: IC50): 12.6 µM

For `C=CCOc1ccc(C(=O)/C=C/c2cc(CC=C)c(O)cc2OC)c(O)c1`, which inhibition [1] is on record?
Its inhibition is “Dose-dependent effect”.

And the IC50 ([2]; read-out: IC50)?
The IC50 was 6.5 µM.

With `C=CCc1cc(/C=C/C(=O)c2ccc(OCCCC(=O)OCC)cc2)c(OC)cc1O` as the compound, how does the inhibition [1] read?
Its inhibition is “Dose-dependent effect”.

What about the IC50 ([2]; read-out: IC50) of the same compound?
The IC50 was 25.6 µM.

What does the source list for `C=CCc1cc(/C=C/C(=O)c2ccc(OC(=O)c3ccccc3)cc2)c(OC)cc1O`?
inhibition [1]: Dose-dependent effect; IC50 ([2]; read-out: IC50): 4.6 µM

Which inhibition [1] does the source give for `C=CCc1cc(/C=C/C(=O)c2ccccc2N2CCCCC2)c(OC)cc1O` here?
Its inhibition is “Dose-dependent effect”.

And the IC50 ([2]; read-out: IC50)?
The IC50 was 9.5 µM.

For `C=CCc1cc(/C=C/C(=O)c2ccc(OC)cc2)c(OC)cc1O`, which inhibition [1] is on record?
Its inhibition is “Dose-dependent effect”.

What about the IC50 ([2]; read-out: IC50) of the same compound?
The IC50 was 7.4 µM.

For `C=CCc1cc(/C=C/C(=O)c2ccc(N(C)C)cc2)c(OC)cc1O`, which inhibition [1] is on record?
Its inhibition is “Dose-dependent effect”.

And the IC50 ([2]; read-out: IC50)?
Its IC50 is 6.9 µM.

Which inhibition [1] does the source give for `C=CC(C)(C)c1cc(/C=C/C(=O)c2ccc(O)cc2)c(OC)cc1O` here?
The inhibition was “Dose-dependent effect”.

Which results are given for `C=CCc1cc(/C=C/C(=O)c2cccc(N(C)C)c2)c(OCc2ccccc2)cc1O`?
inhibition [1]: Dose-dependent effect; IC50 ([2]; read-out: IC50): 5 µM

For `C=CCc1cc(/C=C/C(=O)c2ccc(OCCCC(=O)O)cc2)c(OC)cc1O`, which IC50 ([2]; read-out: IC50) is on record?
Its IC50 is 32.8 µM.

Which inhibition [1] does the source give for `C=CCc1cc(/C=C/C(=O)c2cccc(N(C)C)c2)c(OC)cc1O` here?
The inhibition was “Dose-dependent effect”.

And the IC50 ([2]; read-out: IC50)?
Its IC50 is 0.57 µM.

And the Ratio IC50 [3]?
Its Ratio IC50 is 6.

What about the inhibition [4] of the same compound?
Its inhibition is “Active”.

And the inhibition [5]?
Its inhibition is “Active”.

And the Activity (Mus musculus [6])?
Its Activity is “Active”.

What about the Activity (Mus musculus [7]) of the same compound?
Its Activity is “Active”.

What about the Activity (Mus musculus [8]) of the same compound?
The Activity was “Active”.

And the Activity (Mus musculus [9])?
Its Activity is “Active”.

And the Activity (Mus musculus [10])?
Its Activity is “Active”.

What about the Activity (Mus musculus [11]) of the same compound?
Its Activity is “Active”.

What about the AUC(0-t) [12] of the same compound?
Its AUC(0-t) is 1430 ng·h/mL.

What about the AUC(0-inf) [13] of the same compound?
The AUC(0-inf) was 1620 ng·h/mL.

And the half-life [14]?
Its half-life is 21.1 h.

And the Tmax [15]?
The Tmax was 4.8 min.

What about the Cmax [16] of the same compound?
The Cmax was 2150 ng/mL.

What about the AUC(0-t) [17] of the same compound?
Its AUC(0-t) is 584 ng·h/mL.

What about the AUC [18] of the same compound?
Its AUC is 605.52 ng·h/mL.

What about the half-life [19] of the same compound?
Its half-life is 8.85 h.

What about the Tmax [20] of the same compound?
The Tmax was 14 h.

What about the Cmax [21] of the same compound?
The Cmax was 46.2 ng/mL.

And the Drug uptake [22]?
Its Drug uptake is “Active”.

Reference: ChEMBL document CHEMBL4422680, “Synthesis, biological evaluation, and molecular docking study of novel allyl-retrochalcones as a new class of protein tyrosine phosphatase 1B inhibitors” (Bioorg Med Chem, 2019)
